Test results from patent US20150291532A1, “AMORPHOUS FORM OF QUINOLINE DERIVATIVE, AND METHOD FOR PRODUCING SAME” (Eisai R&D Management Co., Ltd., priority 2012, published 2015).

Experiments:
[1] = Evaluation of solubility: dissolved concentration by the Paddle method, HPLC; type: physicochemical; details: approx. 40 mg in 100 mL fasting artificial intestinal juice pH 6.5, 37° C., 50 rpm; for Concentration of compound A at sampling time 5 minute: 5 min; for Concentration of compound A at sampling time 10 minute: 10 min; for Concentration of compound A at sampling time 20 minute: 20 min; for Concentration of compound A at sampling time 30 minute: 30 min; for Concentration of compound A at sampling time 45 minute: 45 min; for Concentration of compound A at sampling time 60 minute: 60 min
Procedure: The dissolved concentration of amorphous compound A obtained in Example 1 was measured by the Paddle method. Approximately 40 mg of amorphous compound A was loaded into an equipment for the elution test, and 500 μL of solution was sampled at 5, 10, 20, 30, 45 and 60 minutes each. The concentration of compound A in the solution was measured by HPLC. As a comparative control there was used B-form crystals of 4-(3-chloro-4-(cyclopropylaminocarbonyl)aminophenoxy)-7-methoxy-6-quinolinecarboxamide (see Patent Literature 2). Solvent: 100 mL of fasting artificial intestinal juice (buffer with pH 6.5, containing 29 mM NaH2PO4, 100 mM KCl, 7.5 mM lecithin, and 30 mM sodium taurocholate) Temperature: 37° C. Paddle rotational speed: 50 rpm Column: YMC-UltraHT C18 (product of YMC Inc., inner diameter: 2.0 mm, column length: 50 mm, particle size: 2 μm) Column temperature: 40° C. (using a column oven) Flow rate: 0.42 mL/min Mobile phase: Solution A and solution B were used for elution with the linear gradient shown in Table 1. Solution A H2O: CH3CN:HClO4*=990:10:1 (V/V/V) Solution B CH3CN:H2O:HClO4*=900:100:1 (V/V/V) (*: 70% aqueous solution) Injection volume: 10 μL Detection: Ultraviolet absorptiometer (measuring wavelength: 252 nm). Autosampler temperature: 10° C.

[2] = as above; type: physicochemical; details: general statement of advantageous effect

Compound	Concentration of compound A at sampling time 5 minute [1] [ng/mL]	Concentration of compound A at sampling time 10 minute [1] [ng/mL]	Concentration of compound A at sampling time 20 minute [1] [ng/mL]	Concentration of compound A at sampling time 30 minute [1] [ng/mL]	Concentration of compound A at sampling time 45 minute [1] [ng/mL]	Concentration of compound A at sampling time 60 minute [1] [ng/mL]	Solubility in water [2]
COc1cc2nccc(Oc3ccc(NC(=O)NC4CC4)c(Cl)c3)c2cc1C(N)=O [Crystalline B, 4-(3-chloro-4-(cyclopropylaminocarbonyl)aminophenoxy)-7-methoxy-6-quinolinecarboxamide, reference compound]	810	870	930	940	980	1000	–
COc1cc2nccc(Oc3ccc(NC(=O)NC4CC4)c(Cl)c3)c2cc1C(N)=O [Amorphous A, 4-(3-chloro-4-(cyclopropylaminocarbonyl)aminophenoxy)-7-methoxy-6-quinolinecarboxamide]	4900	5360	5630	5520	5410	5310	excellent solubility in water
